Broadly, the IC50 is the midpoint of a concentration-inhibition curve.

The results in this text go back to US9988378B2, “1 H-pyrazole and 4,5-disubstituted thiazole inhibitors of SYK” (Hoffmann-La Roche Inc., priority 2012, dated 2018).

In assay [1] the target is T1, recombinant human SYK360-635 (Homo sapiens, UniProt P43405).
T1 construct: truncated construct of Spleen Tyrosine Kinase aa 360-635; made in house
As to the kind of experiment: SYK kinase assay, 33P ATP filtration (ENZYME_FILTRATION_IC50). Conditions: SYK aa 360-635 0.5 nM, ATP 20 μM, peptide 5 μM, 30° C. 15 min. The assay is classed as biochemical. As to the method:
Determination of IC50 of Spleen Tyrosine Kinase (SYK) Inhibition:
SYK kinase assay is a standard kinase assay adapted to a 96 well plate format. This assay is performed in 96-well format for IC50 determination with […] which represented 10 half log dilutions and a 40 μL reaction volume. The assay measures the incorporation of radiolabeled ^33P ATP into an N-terminally biotinylated peptide substrate, derived from naturally occurring phosphoacceptor consensus sequence (Biotin-11aa DY*E). Phosphorylated products were detected upon termination of reactions with EDTA and the addition of Streptavidin coated beads. Representative results are in Table II above.
Assay plates: 96-well MultiScreen 0.65 um filter plates (Millipore Cat. No.: MADVNOB10) Streptavidin coated beads: Streptavidin Sepharose™, suspension 5.0 mL, in 50 mM EDTA/PBS diluted (1:100), (Amersham, Cat. No.: 17-5113-01)
Compounds: 10 mM in 100% dimethylsulfoxide (DMSO), final conc.: compound 0.003-100 uM in 10% DMSO
Enzyme: SYK RPA purified, truncated construct of Spleen Tyrosine Kinase aa 360-635, stock solution 1 mg/mL, MW: 31.2 KDa, final conc.:0.0005 μM.
Peptide 1: biotinylated peptide is derived from a naturally occurring phosphor-acceptor consensus sequence (Biotin-EPEGDYEEVLE), special order from QCB, stock solution 20 mM, final conc.: 5.0 μM.
ATP: Adenosine-5′-triphosphate 20 mM, (ROCHE Cat. No.: 93202720), final concentration: 20 μM
Buffer: HEPES: 2-Hydroxyethyl piperazine-2-ethanesulfonic acid (Sigma, Cat. No.: H-3375) final concentration: 50 mM HEPES pH7.5
BSA: Bovine Serum Albumin Fraction V, fatty acid free (Roche Diagnostics GmbH, Cat. No. 9100221) diluted to a final concentration of 0.1%
EDTA: EDTA stock solution 500 mM, (GIBCO, Cat. No.: 15575-038) final concentration: 0.1 mM
DTT: 1,4-Dithiothreitol (Roche Diagnostics GmbH, Cat. No.: 197777), final conc.: 1 mM MgCl2×6H2O: MERCK, Cat. No.: 105833.1000, final concentration: 10 mM
Assay Dilution Buffer (ADB): 50 mM HEPES, 0.1 mM EGTA, 0.1 mM Na Vanadate, 0.1 mM β-glycerophosphate, 10 mM MgCl2, 1 mM DTT, 0.1% BSA, pH 7.5
Bead wash buffer: 10 g/L PBS (Phosphate buffered saline) with 2M NaCl+1% phosphoric acid.
In 40 μL volume, 26 μL of ADB diluted, purified recombinant human SYK360-635 [0.5 nM] was mixed with 4 μL of 10× concentrations of the test compounds, [usually 100 μM-0.003 μM] in [10%] DMSO and the mixture was incubated for 10 min at RT.
The kinase reaction was initiated by the addition of 10 μL 4× substrate cocktail containing the DYE peptide substrate [0 or 5 μM], ATP [20 μM] and ^33PγATP [2 μCi/rxn]. After incubation at 30° C. for 15 min, the reaction was terminated by the transfer of 25 μL pf the reaction sample to a 96 well 0.65 μm Millipore MADVNOB membrane/plate containing 200 μL 5 mM EDTA and 20% Streptavidine coated beads in PBS.
The unbound radionucleotides were washed under vacuum with 3×250 μL 2M NaCl; 2×250 μL 2M NaCl+1% phosphoric acid; 1×250 μL H2O. After the last wash membrane/plates were transferred to an adaptor plate, heat dried for 15 min at 60° C., and 50 μL scintillation cocktail was added to each well and 4 h later the amount of radioactivity was counted in a top counter.
The percent inhibition was calculated based on the uninhibited enzyme rate: % Inhibition=100/(1+(IC50/Inhibitor conc)^n)
The IC50 was calculated using a non-linear curve fit with XLfit software (ID Business Solution Ltd., Guilford, Surrey, UK).

Assay [2] concerns RAMOS. As to the kind of experiment: RAMOS_V2_IC50. The assay is classed as cell-based. As to conditions: Homo sapiens.
Assay [3] deals with human whole blood. As to the kind of experiment: IC50: human whole blood. The assay is classed as cell-based.

For `CC(C)NC(=O)c1c[nH]nc1-c1nc(-c2ccccc2)cs1` [Compound I-17, N-isopropyl-3-(4-phenylthiazol-2-yl)-1H-pyrazole-4-carboxamide], the IC50 in assay [1] was 0.761 µM; in assay [2], 3.54 µM; in assay [3] it was > 50 µM.
In the same order, the values of `C[C@@H](CO)NC(=O)c1c[nH]nc1-c1nc2ccccc2s1` [Compound I-12, (S)-3-(benzo[d]thiazol-2-yl)-N-(1-hydroxypropan-2-yl)-1H-pyrazole-4-carboxamide] are 1.69 µM, 4.07 µM and 13.1 µM.
For `Cc1ccc2[nH]c(-c3ncsc3C(=O)NC(C)(C)C)nc2c1` [Compound I-29, 4-(5-Methyl-1H-benzoimidazol-2-yl)-thiazole-5-carboxylic acid tert-butylamide] the same measures were 0.0466 µM, 1.52 µM and 10.4 µM.
In the same order, the values of `CC(=O)OCC(C)(C)C(=O)Nc1c[nH]nc1-c1nc2ccccc2[nH]1` [Compound I-34, Acetic acid 2-[3-(1H-benzoimidazol-2-yl)-1H-pyrazol-4-ylcarbamoyl]-2-methyl-propyl ester] are 0.278 µM, 6.57 µM and 4.17 µM.
On to `O=C(Nc1c[nH]nc1-c1nc2ccccc2[nH]1)C1CCOCC1` [Compound I-33, Tetrahydro-pyran-4-carboxylic acid [3-(1H-benzoimidazol-2-yl)-1H-pyrazol-4-yl]-amide], for which the IC50 in assay [1] stood at 0.105 µM; in assay [2], 3.08 µM; in assay [3], 2.5 µM.
In the same order, the values of `CC(C)(C)C(=O)Nc1c[nH]nc1-c1nc2ccccc2[nH]1` [Compound I-31, N-[3-(1H-Benzoimidazol-2-yl)-1H-pyrazol-4-yl]-2,2-dimethyl-propionamide] are 0.0214 µM, 0.35 µM and 2.6 µM.
In the same order, the values of `CC(C)C(=O)Nc1c[nH]nc1-c1nc2ccccc2[nH]1` [Compound I-30, N-[3-(1H-Benzoimidazol-2-yl)-1H-pyrazoll-4-yl]-isobutyramide] are 0.06 µM, 1.02 µM and 2.29 µM.
In the same order, the values of `O=C(Nc1c[nH]nc1-c1nc2ccccc2[nH]1)C1CCCC1` [Compound I-32, Cyclopentanecarboxylic acid [3-(1H-benzoimidazol-2-yl)-1H-pyrazol-4-yl]-amide] are 0.0389 µM, 0.615 µM and 5.27 µM.
As to `CC(C)(CO)C(=O)Nc1c[nH]nc1-c1nc2ccccc2[nH]1` [Compound I-35, N-[3-(1H-Benzoimidazol-2-yl)-1H-pyrazol-4-yl]-3-hydroxy-2,2-dimethyl-propionamide], the IC50 worked out at 0.0549 µM in assay [1], 0.92 µM in assay [2] and 1.92 µM in assay [3].
In the same order, the values of `CC(C)(CO)NC(=O)c1c[nH]nc1-c1nc2ccccc2s1` [Compound I-7, 3-(benzo[d]thiazol-2-yl)-N-(1-hydroxy-2-methylpropan-2-yl)-1H-pyrazole-4-carboxamide] are 0.562 µM, 0.552 µM and 20.4 µM.
For `CC(C)(C)NC(=O)c1c[nH]nc1-c1nc(-c2ccccc2)cs1` [Compound I-16, N-tert-butyl-3-(4-phenylthiazol-2-yl)-1H-pyrazole-4-carboxamide], the IC50 is 2.41 µM in assay [1], 12.2 µM in assay [2] and > 50 µM in assay [3].
For `CC(C)(C)NC(=O)c1c[nH]nc1-c1nc2c(s1)CCC2` [Compound I-18, N-tert-butyl-3-(5,6-dihydro-4H-cyclopenta[d]thiazol-2-yl)-1H-pyrazole-4-carboxamide] the same measures were 6.12 µM, > 34.1 µM and > 50 µM.
In the same order, the values of `CC(C)(C)NC(=O)c1c[nH]nc1-c1nc2ccccc2s1` [Compound I-8, 3-(benzo[d]thiazol-2-yl)-N-tert-butyl-1H-pyrazole-4-carboxamide] are 0.067 µM, 0.146 µM and 46.7 µM.
For `CCOC(=O)c1c[nH]nc1-c1nc(-c2ccccc2)cs1` [Compound I-13, ethyl 3-(4-phenylthiazol-2-yl)-1H-pyrazole-4-carboxylate] the same measures were > 10 µM, > 34.1 µM and > 50 µM.
